Here are results for 33 molecules from patent US8569484B2, “Heterocyclic urea derivatives and methods of use thereof” (Astrazeneca AB, priority 2009, dated 2013).

This experiment addresses S. aureus GyrB ATPase (Staphylococcus aureus, UniProt P0A0K8). The experiment can be described thus: S. aureus GyrB ATPase inhibition (ammonium molybdate/malachite green phosphate detection). It is filed as biochemical. The note with it: 1 μM compound, S. aureus GyrB ATPase; for inhibition at 1 µM: read-out: Percent Inhibition (1 μM). The procedure: S. aureus GyrB ATPase Inhibition Activity: Compounds may be tested for inhibition of S. aureus GyrB ATPase activity using an ammonium molybdate/malachite green-based phosphate detection assay (Lanzetta, P. A., L. J. Alvarez, P. S. Reinach, and O. A. Candia, 1979, 100: 95-97). Assays can be performed in multiwell plates in 30 μl reactions containing: 50 mM Hepes buffer pH 7.5, 75 mM ammonium acetate, 8.0 mM magnesium chloride, 0.5 mM ethylenediaminetetraacetic acid, 5% glycerol, 1.0 mM 1,4-Dithio-DL-threitol, 200 nM bovine serum albumin, 1.0 μg/ml sheared salmon sperm DNA, 250 pM E. coli GyrA, 250 pM S. aureus GyrB, 250 μM ATP, and compound in dimethylsulfoxide. Reactions can be quenched with 30 μl of ammonium molybdate/malachite green detection reagent containing 1.2 mM malachite green hydrochloride, 8.5 mM ammonium molybdate tetrahydrate, and 1 M hydrochloric acid. Plates can be read in an absorbance plate reader at 650 nm and percent inhibition values can be calculated using dimethylsulfoxide (2%)-containing reactions as 0% inhibition and EDTA-containing ([…]) reactions as 100% inhibition controls. An IC50 measurement of compound potency for each compound can be determined from reactions performed in the presence of 10 different compound concentrations.

Molecules are shown by their SMILES.

S. aureus GyrB ATPase, sequence (P0AES4 whole entry): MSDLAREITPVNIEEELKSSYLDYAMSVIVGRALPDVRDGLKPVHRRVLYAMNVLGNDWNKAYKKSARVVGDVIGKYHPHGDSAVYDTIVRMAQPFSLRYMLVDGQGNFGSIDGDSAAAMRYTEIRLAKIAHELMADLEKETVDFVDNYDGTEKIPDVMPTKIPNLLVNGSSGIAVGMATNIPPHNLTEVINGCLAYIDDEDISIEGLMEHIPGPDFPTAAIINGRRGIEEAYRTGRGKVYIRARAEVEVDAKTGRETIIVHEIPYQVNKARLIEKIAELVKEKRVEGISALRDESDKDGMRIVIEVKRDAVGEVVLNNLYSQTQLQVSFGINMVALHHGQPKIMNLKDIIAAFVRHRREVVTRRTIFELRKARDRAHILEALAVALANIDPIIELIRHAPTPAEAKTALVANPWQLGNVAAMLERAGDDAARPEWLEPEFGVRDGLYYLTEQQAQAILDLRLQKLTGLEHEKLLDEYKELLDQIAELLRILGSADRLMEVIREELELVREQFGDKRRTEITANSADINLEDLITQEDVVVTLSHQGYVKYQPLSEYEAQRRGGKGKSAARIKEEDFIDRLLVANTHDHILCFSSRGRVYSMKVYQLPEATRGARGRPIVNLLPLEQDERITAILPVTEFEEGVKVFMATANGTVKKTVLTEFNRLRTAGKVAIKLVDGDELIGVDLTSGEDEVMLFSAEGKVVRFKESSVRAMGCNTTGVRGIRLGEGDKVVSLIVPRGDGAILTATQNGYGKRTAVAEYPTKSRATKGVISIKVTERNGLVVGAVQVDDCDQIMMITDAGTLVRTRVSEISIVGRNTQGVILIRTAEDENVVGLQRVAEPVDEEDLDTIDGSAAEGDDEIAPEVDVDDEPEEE
S. aureus GyrB ATPase, sequence (P0A0K8 whole entry): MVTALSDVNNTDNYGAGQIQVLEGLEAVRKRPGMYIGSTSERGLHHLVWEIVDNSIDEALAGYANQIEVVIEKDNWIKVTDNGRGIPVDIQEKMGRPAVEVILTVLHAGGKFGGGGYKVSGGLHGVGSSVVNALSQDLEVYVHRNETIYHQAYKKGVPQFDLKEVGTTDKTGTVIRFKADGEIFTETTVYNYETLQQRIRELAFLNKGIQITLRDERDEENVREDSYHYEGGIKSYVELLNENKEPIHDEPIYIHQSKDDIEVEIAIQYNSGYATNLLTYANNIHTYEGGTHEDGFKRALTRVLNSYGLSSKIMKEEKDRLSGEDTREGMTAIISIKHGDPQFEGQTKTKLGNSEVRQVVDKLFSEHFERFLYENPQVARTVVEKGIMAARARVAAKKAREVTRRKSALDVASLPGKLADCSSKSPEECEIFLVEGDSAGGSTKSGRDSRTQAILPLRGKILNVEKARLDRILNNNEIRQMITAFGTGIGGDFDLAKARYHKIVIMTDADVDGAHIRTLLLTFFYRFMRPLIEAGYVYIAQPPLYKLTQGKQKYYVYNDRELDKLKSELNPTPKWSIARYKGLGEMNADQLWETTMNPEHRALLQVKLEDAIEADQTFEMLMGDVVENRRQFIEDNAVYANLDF

As for `CCNC(=O)Nc1cc(-c2nc(C(F)(F)F)cs2)c(-c2cc3c(=O)c(C(=O)O)cn(CC(C)N4CCOCC4)c3cn2)cn1` (stereo not drawn) [Example 43], the inhibition (in general, the change of the read-out against control, counted positive when it falls) at 1 µM came out at 94%.

For the molecule `CCNC(=O)Nc1cc(-c2nc(C(F)(F)F)cs2)c(-c2cc3c(=O)c(C(=O)O)cn(C(COC)COC)c3cn2)cn1` [Example 44], the inhibition at 1 µM turned out to be 102%.

`CCNC(=O)Nc1cc(-c2nc(C(F)(F)F)cs2)c(-c2cc3c(=O)c(C(=O)O)cn([C@H](CO)CC(C)C)c3cn2)cn1` [Example 45]: the inhibition at 1 µM turned out to be 107%.

Consider `CCNC(=O)Nc1cc(-c2nc(C(F)(F)F)cs2)c(-c2cc3c(=O)c(C(=O)O)cn(CCOC)c3cn2)cn1` [Example 46], for which the inhibition at 1 µM is 106%.

Turning to `CCNC(=O)Nc1cc(-c2nc(C(F)(F)F)cs2)c(-c2cc3c(=O)c(C(=O)O)cn(CCN(C)C)c3cn2)cn1` [Example 47], the inhibition at 1 µM is 98%.

For `CCNC(=O)Nc1cc(-c2nc(C(F)(F)F)cs2)c(-c2cc3c(=O)c(C(=O)O)cn([C@H]4CCCN(CCN5CCOCC5)C4)c3cn2)cn1` [Example 48], the inhibition at 1 µM worked out at 101%.

As to `CCNC(=O)Nc1cc(-c2nc(C(F)(F)F)cs2)c(-c2cc3c(=O)c(C(=O)O)cn([C@@H]4CCCN(CCN5CCOCC5)C4)c3cn2)cn1` [Example 49], the inhibition at 1 µM amounted to 98%.

Take `CCNC(=O)Nc1cc(-c2nc(C(F)(F)F)cs2)c(-c2cc3c(=O)c(C(=O)O)cn(Cc4cn(C)cn4)c3cn2)cn1` [Example 50]: the inhibition at 1 µM was found to be 99%.

`CCNC(=O)Nc1cc(-c2nc(C(F)(F)F)cs2)c(-c2cc3c(=O)c(C(=O)O)cn(Cc4cnn(C)c4)c3cn2)cn1` [Example 51, 6-(6-(3-ethylureido)-4-(4-(trifluoromethyl)thiazol-2-yl)pyridin-3-yl)-1-((1-methyl-1H-pyrazol-4-yl)methyl)-4-oxo-1,4-dihydro-1,7-naphthyridine-3-carboxylic acid]: the inhibition at 1 µM came out at 102%.

As for `CCNC(=O)Nc1cc(-c2nc(C(F)(F)F)cs2)c(-c2cc3c(=O)c(C(=O)O)cn([C@H]4CCCN(CCN(CC)CC)C4)c3cn2)cn1` [Example 52, (5)-1-(1-(2-(diethylamino)ethyl)piperidin-3-yl)-6-(6-(3-ethylureido)-4-(4-(trifluoromethyl)thiazol-2-yl)pyridin-3-yl)-4-oxo-1,4-dihydro-1,7-naphthyridine-3-carboxylic acid], the “Percent Inhibition (1 μM)” value is 105%.

Consider `CCNC(=O)Nc1cc(-c2nc(C(F)(F)F)cs2)c(-c2cc3c(=O)c(C(=O)O)cn([C@@H]4CCCN(CCN(CC)CC)C4)c3cn2)cn1` [Example 53], for which the inhibition at 1 µM amounted to 103%.

For the molecule `CCNC(=O)Nc1cc(-c2nc(C(F)(F)F)cs2)c(-c2cnc3c(c2)c(=O)c(C(=O)O)cn3[C@@H]2CCCN(CCN(CC)CC)C2)cn1` [Example 54], the inhibition at 1 µM turned out to be 106%.

On to `CCNC(=O)Nc1cc(-c2nc(C(F)(F)F)cs2)c(-c2cnc3c(c2)c(=O)c(C(=O)O)cn3C(COC)COC)cn1` [Example 55], for which the inhibition at 1 µM was determined as 103%.

Take `CCNC(=O)Nc1cc(-c2nc(C(F)(F)F)cs2)c(-c2cnc3c(c2)c(=O)c(C(=O)O)cn3CCN2CCOCC2)cn1` [Example 56]: the inhibition at 1 µM stood at 101%.

In the case of `CCNC(=O)Nc1cc(-c2nc(C(F)(F)F)cs2)c(-c2cnc3c(c2)c(=O)c(C(=O)O)cn3C2CN(C)C2)cn1` [Example 57], the inhibition at 1 µM was 107%.

Consider `CCNC(=O)Nc1cc(-c2nc(C(F)(F)F)cs2)c(-c2cc3c(=O)c(C(=O)O)cn(C[C@@H]4CCCN4CC)c3nc2N2CCN(C)CC2)cn1` [Example 58], for which the inhibition at 1 µM was 104%.

For `CCNC(=O)Nc1cc(-c2nc(C(F)(F)F)cs2)c(-c2cc3c(=O)c(C(=O)O)cn([C@H](CO)C(C)(C)C)c3nc2N2CCN(C)CC2)cn1` [Example 59, (S)-6-(6-(3-ethylureido)-4-(4-(trifluoromethyl)thiazol-2-yl)pyridin-3-yl)-1-(1-hydroxy-3,3-dimethylbutan-2-yl)-7-(4-methylpiperazin-1-yl)-4-oxo-1,4-dihydro-1,8-naphthyridine-3-carboxylic acid], the inhibition at 1 µM stood at 108%.

Take `CCNC(=O)Nc1cc(-c2nc(C(F)(F)F)cs2)c(-c2cc3c(=O)c(C(=O)O)cn(CCN4CCN(C)CC4)c3nc2N2CC[C@@H](CN)C2)cn1` [Example 60]: the inhibition at 1 µM is 101%.

On to `CCNC(=O)Nc1cc(-c2nc(C(F)(F)F)cs2)c(-c2cc3c(=O)c(C(=O)O)cn(CCN4CCN(C)CC4)c3nc2N2CC[C@H](N)C2)cn1` [Example 61], for which the inhibition at 1 µM was 103%.

Regarding `CCNC(=O)Nc1cc(-c2nc(-c3ccccc3)cs2)c(-c2cc3c(=O)c(C(=O)O)cn([C@H]4CCCN(CCN5CCOCC5)C4)c3cn2)cn1` [Example 63], the inhibition at 1 µM came to 105%.

`CCNC(=O)Nc1cc(-c2nc(-c3ccccc3)cs2)c(-c2cc3c(=O)c(C(=O)O)cn([C@@H]4CCCN(CCN5CCOCC5)C4)c3cn2)cn1` [Example 64]: the inhibition at 1 µM was found to be 100%.

With `CCNC(=O)Nc1cc(-c2nc(-c3ccccc3)cs2)c(-c2cc3c(=O)c(C(=O)O)cn(Cc4cn(C)cn4)c3cn2)cn1` [Example 65], the inhibition at 1 µM came out at 98%.

Turning to `CCNC(=O)Nc1cc(-c2nc(C(F)(F)F)cs2)c(-c2cc3c(=O)c(C(=O)O)cn(C(C)(C)C)c3cn2)cn1` [Example 66], the inhibition at 1 µM was 106%.

With `CCNC(=O)Nc1cc(-c2nc(C(F)(F)F)cs2)c(-c2cc3c(=O)c(C(=O)O)cn(CCN4CCCC4)c3cn2)cn1` [Example 67], the inhibition at 1 µM was 93%.

In the case of `CCNC(=O)Nc1cc(-c2nc(C(F)(F)F)cs2)c(-c2cc3c(=O)c(C(=O)O)cn(CC)c3cn2)cn1` [Example 68], the inhibition at 1 µM turned out to be 110%.

In the case of `CCNC(=O)Nc1cc(-c2nc(C(F)(F)F)cs2)c(-c2cc3c(=O)c(C(=O)O)cn(CCN4CCOCC4)c3cn2)cn1` [Example 69], the inhibition at 1 µM came to 103%.

As for `CCNC(=O)Nc1cc(-c2nc(C(F)(F)F)cs2)c(-c2cc3c(=O)c(C(=O)O)cn(C4CN(C)C4)c3cn2)cn1` [Example 70], the inhibition at 1 µM came out at 102%.

As for `CCNC(=O)Nc1cc(-c2nc(C(F)(F)F)cs2)c(-c2cc3c(=O)c(C(=O)O)cn([C@H](CO)C(C)(C)C)c3cn2)cn1` [Example 71], the inhibition at 1 µM stood at 103%.

Consider `CCNC(=O)Nc1cc(-c2nc(C(F)(F)F)cs2)c(-c2cc3c(=O)c(C(=O)O)cn(Cc4ccncc4)c3cn2)cn1` [Example 72], for which the inhibition at 1 µM came out at 105%.

Turning to `CCCN1CC[C@H](Cn2cc(C(=O)O)c(=O)c3cc(-c4cnc(NC(=O)NCC)cc4-c4nc(C(F)(F)F)cs4)ncc32)C1` [Example 73], the inhibition at 1 µM came to 108%.

In the case of `CCNC(=O)Nc1cc(-c2nc(C(F)(F)F)cs2)c(-c2cc3c(=O)c(C(=O)O)cn(C[C@@H]4CCN(CC)C4)c3cn2)cn1` [Example 74], the inhibition at 1 µM was 100%.

For `CCNC(=O)Nc1cc(-c2nc(-c3cnn(C)c3)cs2)c(-c2cc3c(=O)c(C(=O)O)cn(C4CC4)c3cn2)cn1` [Example 75], the inhibition at 1 µM came to 108%.

`CCNC(=O)Nc1cc(-c2nc(-c3cnn(C)c3)cs2)c(-c2cc3c(=O)c(C(=O)O)cn(Cc4cn(C)cn4)c3cn2)cn1` [Example 76, 6-(6-(3-ethylureido)-4-(4-(1-methyl-1H-pyrazol-4-yl)thiazol-2-yl)pyridin-3-yl)-1-((1-methyl-1H-imidazol-4-yl)methyl)-4-oxo-1,4-dihydro-1,7-naphthyridine-3-carboxylic acid]: the inhibition at 1 µM came out at 109%.
